Two compounds from PubChem BioAssay AID602458 (NMMLSC, 2012) can be followed below.

In brackets after ≈: the same amount, converted by molar mass. Activity calls are given as the source filed them.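 How the source made its calls: active means compounds whose saturated solubility in pH 7.4 saline buffer exceeds 10 µg/mL; inactive means the rest.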

In this data set the test system is 1xPBS pH 7.4 kinetic solubility, UV absorbance. In words: compound solubility in PBS buffer – biophysical, 1xPBS, pH 7.4, UV absorbance, ADME assay for GPR30 and estrogen receptor ligands, late-stage follow-up (AID 602458). To be noted: stronger effect = higher value.

For orientation: solubility means the dissolved amount per volume that the medium holds. With `COc1cc([N+](=O)[O-])cc2c1NC(C1CC=CCC1)C1CC=CC21` (configuration not stated), the solubility is 0.28 µg/mL (inactive) (≈ 0.858 µM).
`CC(=O)c1ccc2c(c1)[C@@H]1C=CC[C@@H]1[C@H](c1cc3c(cc1Br)OCO3)N2`: the solubility was 0.14 µg/mL (inactive) (≈ 0.34 µM).
